Laboratory results from ChEMBL document CHEMBL1128575, “Nonpeptidic inhibitors of human leukocyte elastase. 5. Design, synthesis, and X-ray crystallography of a series of orally active 5-aminopyrimidin-6-one-containing trifluoromethyl ketones” (J Med Chem, 1995).
Converted amounts (≈) assume the structure as drawn. The source made the active and inactive calls. The rule behind the calls is not given here.

How the values were obtained:
Neutrophil elastase = target: T1, Neutrophil elastase (Homo sapiens, UniProt P08246); experiment: In vitro inhibition of human leukocyte elastase mediated hydrolysis of the synthetic substrate MeO-Suc-Ala-Ala-Pro-Val-pNA
T1 sequence (P08246 whole entry): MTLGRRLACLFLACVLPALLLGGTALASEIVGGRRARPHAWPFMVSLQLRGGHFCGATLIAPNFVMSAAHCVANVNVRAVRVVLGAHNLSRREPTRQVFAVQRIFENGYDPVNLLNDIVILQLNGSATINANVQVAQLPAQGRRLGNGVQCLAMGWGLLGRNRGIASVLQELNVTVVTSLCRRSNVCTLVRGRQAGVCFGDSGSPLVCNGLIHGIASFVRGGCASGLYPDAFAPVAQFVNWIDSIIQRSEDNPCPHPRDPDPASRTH

[1] = Selectivity ratio for bovine pancreatic chymotrypsin and HLE
Cricetinae gen. sp. [2] = experiment: Oral dose of 20 mg/Kg (30 min prior to instillation of elastase) was tested for the inhibition of elastase-induced lung hemorrhage in hamster; Not active; type: functional, organism-based; settings: Cricetulus griseus
Cricetinae gen. sp. [3] = experiment: Oral dose of 20 mg/Kg (30 min prior to instillation of elastase) was tested for the inhibition of elastase-induced lung hemorrhage in hamster; type: functional, Cricetulus griseus
Cricetinae gen. sp. [4] = experiment: Oral dose of 2.5 mg/Kg (30 min prior to instillation of elastase) was tested for the inhibition of elastase-induced lung hemorrhage in hamster; type: functional, Cricetulus griseus
Cricetinae gen. sp. [5] = experiment: Oral dose of 2.5 mg/Kg (30 min prior to instillation of elastase) was tested for the inhibition of elastase-induced lung hemorrhage in hamster; Not active; type: functional, organism-based; settings: Cricetulus griseus
[6] = Partition coefficient (logP); type: physicochemical; settings: octanol/water
[7] = Solubility of compound in 0.01 M sodium phosphate buffer at pH = […]; type: physicochemical; settings: pH 7.4
[8] = Area under the concentration vs time curve in dog at 10 mg/kg oral dose; type: ADME, organism-based, Canis lupus familiaris; set-up: dose 10 mg/kg, route oral; settings: in vivo
[9] = Maximum concentration in plasma recorded 0-6 hr post dose in dog at 10 mg/kg oral dose; type: ADME, organism-based, Canis lupus familiaris; set-up: dose 10 mg/kg, route oral
[10] = Half life in plasma in dog at 10 mg/kg oral dose; type: ADME, organism-based, Canis lupus familiaris; set-up: dose 10 mg/kg, route oral
[11] = Area under the concentration vs time curve in hamster at 10 mg/kg oral dose; type: ADME, organism-based; set-up: dose 10 mg/kg, route oral; settings: cricetinae, in vivo
Cricetinae gen. sp. [12] = experiment: Oral dose of 2.5 mg/Kg (90 min prior to instillation of elastase) was tested for the inhibition of elastase-induced lung hemorrhage in hamster; type: functional, Cricetulus griseus
[13] = Tmax is the time of maximum concentration in hamster at 10 mg/kg oral dose; type: ADME, organism-based; set-up: dose 10 mg/kg, route oral; settings: cricetinae, in vivo
[14] = Half life in plasma in rat at 10 mg/kg oral dose; type: ADME, organism-based; set-up: dose 10 mg/kg, route oral
[15] = Tmax is the time of maximum concentration in dog at 10 mg/kg oral dose; type: ADME, organism-based, Canis lupus familiaris; set-up: dose 10 mg/kg, route oral; settings: in vivo
[16] = Area under the concentration vs time curve in rat at 10 mg/kg oral dose; type: ADME, organism-based; set-up: dose 10 mg/kg, route oral; settings: in vivo
[17] = Half life in plasma in hamster at 10 mg/kg oral dose; type: ADME, organism-based; set-up: dose 10 mg/kg, route oral; settings: cricetinae
[18] = Maximum concentration in plasma recorded in the period 0-6 hr post dose in rat at 10 mg/kg oral dose; type: ADME, organism-based; set-up: dose 10 mg/kg, route oral
[19] = Tmax is the time of maximum concentration in rat at 10 mg/kg oral dose; type: ADME, organism-based; set-up: dose 10 mg/kg, route oral; settings: in vivo
[20] = Maximum concentration in plasma recorded in the period 0-6 hr post dose in hamster at 10 mg/kg oral dose; type: ADME, organism-based; set-up: dose 10 mg/kg, route oral; settings: cricetinae
Cricetinae gen. sp. [21] = experiment: Compound at an oral dose of 20 mg/Kg (90 min prior to instillation of elastase) was tested for the inhibition of elastase-induced lung hemorrhage in hamster; type: functional, Cricetulus griseus
Cricetinae gen. sp. [22] = experiment: Compound at an oral dose of 2.5 mg/Kg (90 min prior to instillation of elastase) was tested for the inhibition of elastase-induced lung hemorrhage in hamster; Not active; type: functional, organism-based; settings: Cricetulus griseus

| Structure (SMILES) | Ki (Neutrophil elastase) | inhibition (Cricetinae gen. sp. [2]) | inhibition in vivo at 20 mg/kg (Cricetinae gen. sp. [3]) | inhibition in vivo at 2.5 mg/kg (Cricetinae gen. sp. [12]) | other results |
| --- | --- | --- | --- | --- | --- |
| CC(C)C(NC(=O)Cn1c(-c2ccc([N+](=O)[O-])cc2)ncc(NC(=O)OCc2ccccc2)c1=O)C(=O)C(F)(F)F (configuration not stated) | 17 nM | inactive | – | – | Ratio [1]: 406 |
| COC(=O)Nc1cnc(-c2ccc(F)cc2)n(CC(=O)NC(C(=O)C(F)(F)F)C(C)C)c1=O (configuration not stated) | – | – | 73% | – | inhibition in vivo at 2.5 mg/kg (Cricetinae gen. sp. [4]): 39% |
| Cc1cncc(C)c1COC(=O)Nc1cnc(-c2ccc(F)cc2)n(CC(=O)NC(B2OC(C)(C)C(C)(C)O2)C(C)C)c1=O (configuration not stated) | 0.96 nM | – | – | – | inhibition (Cricetinae gen. sp. [5]): inactive |
| CC(C)C(NC(=O)Cn1c(C2CCCCC2)ncc(NC(=O)OCc2ccccc2)c1=O)C(=O)C(F)(F)F (configuration not stated) | 57 nM | inactive | – | – | logP [6]: 2.9; solubility [7]: 42 µg/mL (≈ 78.3 µM) |
| CC(C)C(NC(=O)Cn1c(-c2cc(F)cc(F)c2)ncc(NC(=O)OCc2ccccc2)c1=O)C(=O)C(F)(F)F (configuration not stated) | 20 nM | – | 43% | – | Ratio [1]: 230 |
| CC(C)C(NC(=O)Cn1c(-c2ccc(F)cc2)ncc(N)c1=O)C(=O)C(F)(F)F (configuration not stated) | – | – | 66% | 49% | AUC [8]: 5950 ng·h/mL; Cmax [9]: 3230 ng/mL; half-life [10]: 0.967 h; AUC [11]: 1190 ng·h/mL; Tmax [13]: 0.25 h; half-life [14]: 1.6 h; Tmax [15]: 1 h; inhibition in vivo at 2.5 mg/kg (Cricetinae gen. sp. [4]): 43%; AUC [16]: 5170 ng·h/mL; half-life [17]: 1.35 h; Cmax [18]: 1900 ng/mL; Tmax [19]: 1 h; Cmax [20]: 750 ng/mL |
| CC(C)C(NC(=O)Cn1c(-c2ccccc2)ccc(NC(=O)OCc2ccccc2)c1=O)C(=O)C(F)(F)F (configuration not stated) | – | inactive | – | – | logP [6]: > 4 |
| CC(C)C(NC(=O)Cn1c(-c2cccs2)ncc(NC(=O)OCC(F)(F)F)c1=O)C(=O)C(F)(F)F (configuration not stated) | 48 nM | – | – | 41% | inhibition in vivo at 20 mg/kg (Cricetinae gen. sp. [21]): 60% |
| CC(C)C(NC(=O)Cn1c(-c2ccc(Cl)cc2)ncc(NC(=O)OCc2ccccc2)c1=O)C(=O)C(F)(F)F (configuration not stated) | 18 nM | inactive | – | – | Ratio [1]: 322 |
| CC(C)C(NC(=O)Cn1c(-c2ccc(NC=O)cc2)ncc(NC(=O)OCc2ccccc2)c1=O)C(=O)C(F)(F)F (configuration not stated) | 9 nM | inactive | – | – | – |
| CC(C)C(NC(=O)Cn1c(-c2cc(F)cc(F)c2)ncc(N)c1=O)C(=O)C(F)(F)F (configuration not stated) | 270 nM | – | 72% | 45% | – |
| CC(C)C(NC(=O)Cn1c(-c2cccnc2)ncc(NC(=O)OCc2ccccc2)c1=O)C(=O)C(F)(F)F (configuration not stated) | 33 nM | – | 59% | – | Ratio [1]: 245; logP [6]: 1.3; solubility [7]: 580 µg/mL (≈ 1090 µM) |
| CC(C)C(NC(=O)Cn1c(-c2cccs2)ncc(NC=O)c1=O)C(=O)C(F)(F)F (configuration not stated) | 100 nM | – | – | 37% | inhibition in vivo at 20 mg/kg (Cricetinae gen. sp. [21]): 58% |
| CSC(=O)Nc1cnc(-c2ccccc2)n(CC(=O)NC(C(=O)C(F)(F)F)C(C)C)c1=O (configuration not stated) | 16 nM | – | – | 32% | inhibition in vivo at 20 mg/kg (Cricetinae gen. sp. [21]): 57% |
| COc1ccc(-c2ncc(NC(=O)OCc3ccccc3)c(=O)n2CC(=O)NC(C(=O)C(F)(F)F)C(C)C)cc1 (configuration not stated) | 8.1 nM | inactive | – | – | Ratio [1]: 272 |
| CNc1cnc(-c2ccc(F)cc2)n(CC(=O)NC(C(=O)C(F)(F)F)C(C)C)c1=O (configuration not stated) | 46 nM | – | 89% | – | inhibition (Cricetinae gen. sp. [22]): inactive; inhibition in vivo at 2.5 mg/kg (Cricetinae gen. sp. [4]): 43% |
| COC(=O)Nc1cnc(-c2ccc(F)cc2)n(CC(=O)NC(B2OC(C)(C)C(C)(C)O2)C(C)C)c1=O (configuration not stated) | 7.7 nM | – | – | – | inhibition (Cricetinae gen. sp. [5]): inactive |
| CSC(=O)Nc1cnc(-c2ccc(F)cc2)n(CC(=O)NC(C(=O)C(F)(F)F)C(C)C)c1=O (configuration not stated) | 23 nM | – | – | 50% | – |
| COC(=O)Nc1cnc(-c2cccs2)n(CC(=O)NC(C(=O)C(F)(F)F)C(C)C)c1=O (configuration not stated) | 42 nM | – | 80% | – | inhibition (Cricetinae gen. sp. [22]): inactive; inhibition in vivo at 2.5 mg/kg (Cricetinae gen. sp. [4]): 49% |
| CC(C)C(NC(=O)Cn1c(-c2cccs2)ncc(NC(=O)OC(C)(C)C)c1=O)C(=O)C(F)(F)F (configuration not stated) | 27 nM | – | 92% | 33% | inhibition in vivo at 2.5 mg/kg (Cricetinae gen. sp. [4]): 50% |
